Where two headings read alike, the source gives them in different places.
Experiments:
[1] = target: T1, human glucocorticoid receptor-α [GRX] isoform (Homo sapiens, UniProt P04150); assay: Radioligand binding with human glucocorticoid receptor cytosol ([3H]-dexamethasone competition)
T1 construct: host or cells: insect SF21 cells (baculovirus)
T1 sequence (P04150 1-777): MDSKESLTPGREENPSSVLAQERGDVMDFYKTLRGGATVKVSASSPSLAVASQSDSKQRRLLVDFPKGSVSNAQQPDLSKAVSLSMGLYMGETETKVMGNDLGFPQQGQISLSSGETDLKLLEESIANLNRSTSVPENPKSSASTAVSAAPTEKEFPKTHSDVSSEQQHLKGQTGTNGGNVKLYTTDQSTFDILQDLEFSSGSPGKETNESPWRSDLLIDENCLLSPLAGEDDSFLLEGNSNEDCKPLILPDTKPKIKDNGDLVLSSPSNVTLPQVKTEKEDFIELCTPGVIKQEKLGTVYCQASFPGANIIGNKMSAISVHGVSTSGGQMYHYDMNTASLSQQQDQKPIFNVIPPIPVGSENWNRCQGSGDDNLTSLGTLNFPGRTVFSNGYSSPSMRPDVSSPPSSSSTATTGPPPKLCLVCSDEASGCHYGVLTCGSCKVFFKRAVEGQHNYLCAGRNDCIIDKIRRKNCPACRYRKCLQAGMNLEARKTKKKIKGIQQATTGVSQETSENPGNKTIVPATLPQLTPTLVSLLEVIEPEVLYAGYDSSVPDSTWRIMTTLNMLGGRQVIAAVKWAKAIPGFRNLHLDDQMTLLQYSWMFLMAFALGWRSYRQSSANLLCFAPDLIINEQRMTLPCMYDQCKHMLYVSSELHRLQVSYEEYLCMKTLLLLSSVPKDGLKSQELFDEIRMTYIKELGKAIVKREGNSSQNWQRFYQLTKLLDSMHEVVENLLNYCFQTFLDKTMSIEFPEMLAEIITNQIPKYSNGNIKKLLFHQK

[2] = target: T2, human progesterone receptor-A [PRA] isoform (Homo sapiens, UniProt P06401); assay: Radioligand binding with human progesterone receptor cytosol ([3H]-progesterone competition); conditions: read-out: Ki (nM) PR
T2 construct: host or cells: insect SF21 cells (baculovirus)
T2 sequence (P06401 1-769 isoform P06401-2): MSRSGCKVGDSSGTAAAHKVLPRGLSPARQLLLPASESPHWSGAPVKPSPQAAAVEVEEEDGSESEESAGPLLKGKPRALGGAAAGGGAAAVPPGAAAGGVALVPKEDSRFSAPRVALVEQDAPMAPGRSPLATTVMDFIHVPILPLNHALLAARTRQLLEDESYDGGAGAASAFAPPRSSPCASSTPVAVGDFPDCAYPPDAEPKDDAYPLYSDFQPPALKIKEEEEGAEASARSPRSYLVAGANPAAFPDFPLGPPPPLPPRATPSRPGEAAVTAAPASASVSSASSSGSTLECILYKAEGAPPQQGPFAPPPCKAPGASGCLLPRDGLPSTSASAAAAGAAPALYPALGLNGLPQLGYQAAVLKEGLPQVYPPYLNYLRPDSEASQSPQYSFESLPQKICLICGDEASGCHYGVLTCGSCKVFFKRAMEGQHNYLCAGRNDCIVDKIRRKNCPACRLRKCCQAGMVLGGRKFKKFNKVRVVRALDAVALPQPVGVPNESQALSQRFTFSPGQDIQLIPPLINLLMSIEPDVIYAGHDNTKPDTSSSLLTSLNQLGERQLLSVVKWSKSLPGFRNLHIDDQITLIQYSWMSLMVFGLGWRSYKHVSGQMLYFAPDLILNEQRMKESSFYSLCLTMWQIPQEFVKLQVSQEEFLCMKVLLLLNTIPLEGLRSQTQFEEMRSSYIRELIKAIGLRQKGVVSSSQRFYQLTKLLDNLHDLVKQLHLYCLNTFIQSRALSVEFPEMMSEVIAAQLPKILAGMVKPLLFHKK

[3] = GRX cytosol expressed in insect SF21 cells, [3H]-Dex ~0.9 nM, 4° C. overnight, Ki by Cheng-Prusoff, KL ~[…], read-out: Ki (nM) GR
[4] = PRA cytosol expressed in insect SF21 cells, [3H]Prog ~0.8 nM, 4° C. overnight, Ki by Cheng-Prusoff, KL ~4.5 nM

| Ki [1, 3] | Ki [2, 4] | Molecule | Ki ([1]; read-out: Ki (nM) GR) | Ki [2] | Ki ([1]; Ki (nM) GR) |
| --- | --- | --- | --- | --- | --- |
| 0.85 nM | 110 nM | C=CCC1Oc2ccc(OC(=O)CCCN(C)C)c(OC)c2-c2ccc3c(c21)C(C)=CC(C)(C)N3 (centres unmarked) [Example 426, 2,5-Dihydro-9-(4-N,N-dimethylaminobutanoyloxy)-10-methoxy-2,2,4-trimethyl-5-(2-propenyl)-1H-[1]benzopyrano[3,4-f]quinoline] |  |  |  |
| 36 nM | ≥ 10000 nM | COCC1=CC(C2Oc3cccc(OC)c3-c3ccc4c(c32)C(C)=CC(C)(C)N4)CCC1 (centres unmarked) [Example 164] |  |  |  |
| 0.89 nM | 129 nM | C=CCC1Oc2ccc(OC(=O)CCCC(=O)N(C)C)c(OC)c2-c2ccc3c(c21)C(C)=CC(C)(C)N3 (centres unmarked) [Example 438] |  |  |  |
| 17.8 nM | 1450 nM | CCc1cccc2c1-c1ccc3c(c1C(c1cc(Cl)cc(Cl)c1)O2)C(C)=CC(C)(C)N3 (centres unmarked) [Example 72, 5-(3,5-Dichlorophenyl)-10-ethyl-2,5-dihydro-2,2,4-trimethyl-1H-[1]benzopyrano[3,4-f]quinoline] |  |  |  |
| 3.3 nM | 7430 nM | C=C(C)CC1Oc2cccc(OC)c2-c2ccc3c(c21)C(C)=CC(C)(C)N3 (centres unmarked) [Example 171, 2,5-Dihydro-10-methoxy-5-(2-methyl-3-propenyl)-2,2,4-trimethyl-1H-[1]benzopyrano[3,4-f]quinoline] |  |  |  |
| 0.51 nM | 307 nM | COc1c(O)ccc2c1-c1ccc3c(c1[C@H](C1CCCC1)O2)C(C)=CC(C)(C)N3 [Example 264, (−)(S)5-Cyclopentyl-2,5-dihydro-9-hydroxy-10-methoxy-2,2,4-trimethyl-1H-[1]benzopyrano[3,4-f]quinoline] |  |  |  |
|  |  | 2,5-Dihydro-10-methoxy-5-(3,3-dimethyl-6-cyclohexenyl)-2,2,4-trimethyl-1H-[1]benzopyrano[3,4-f]quinoline [Example 146] | 8.3 nM | 8300 nM |  |
| 270 nM | ≥ 10000 nM | COc1cccc2c1-c1ccc3c(c1C(CC(O)CO)O2)C(C)=CC(C)(C)N3 (mixture of isomers) [Example 174, 2,5-Dihydro-10-methoxy-5-(1,2-dihydroxy-3-propyl)-2,2,4-trimethyl-1H-[1]benzopyrano[3,4-f]quinoline] |  |  |  |
| 64 nM | 3030 nM | COc1c(O)ccc2c1-c1ccc3c(c1[C@@H]([C@@H]1C=CCC1)O2)C(C)=CC(C)(C)N3 [Example 286] |  |  |  |
| 6.5 nM | 3370 nM | C=CCC1Oc2cccc(OC)c2-c2ccc3c(c21)C(C)=C(C)C(C)(C)N3 (centres unmarked) [Example 362, 2,5-Dihydro-10-methoxy-2,2,3,4-tetramethyl-5-allyl-1H-[1]benzopyrano[3,4-f]quinoline] |  |  |  |
| 134 nM | ≥ 10000 nM | COCCNC(=O)OCCC1Oc2cccc(OC)c2-c2ccc3c(c21)C(C)=CC(C)(C)N3 (centres unmarked) [Example 202, 2,5-Dihydro-10-methoxy-5-(2-(N-(2-methoxyethyl)aminocarbonyloxy)ethyl)-2,2,4-trimethyl-1H-[1]benzopyrano[3,4-f]quinoline] |  |  |  |
| 38 nM | ≥ 10000 nM | COCOC/C=C/C1Oc2cccc(OC)c2-c2ccc3c(c21)C(C)=CC(C)(C)N3 (centres unmarked) [Example 183, (E) 2,5-Dihydro-10-methoxy-5-(3-methoxymethoxy-1-propenyl)-2,2,4-trimethyl-1H-[1]benzopyrano[3,4-f]quinoline] |  |  |  |
| 0.89 nM | 171 nM | COc1c(O)ccc2c1-c1ccc3c(c1C(Cc1ccccc1F)O2)C(C)=CC(C)(C)N3 (centres unmarked) [Example 348, 2,5-Dihydro-9-hydroxy-10-methoxy-2,2,4-trimethyl-5-((2-fluorophenyl)methyl)-1H-[1]benzopyranol[3,4-f]quinoline] |  |  |  |
| 9.7 nM | ≥ 10000 nM | COc1cccc2c1-c1ccc3c(c1C(c1cc(C)cc(N4CCCC4)c1)O2)C(C)=CC(C)(C)N3 (centres unmarked) [Example 113, 2,5-Dihydro-10-methoxy-2,2,4-trimethyl-5-[3-methyl-5-(1H-pyrrolidin-1-yl)phenyl]1H-[1]benzopyrano[3,4-f]quinoline] |  |  |  |
|  |  | 9,10-Dimethoxy-5-[3-cyclohexenyl]-methoxy-2,2,4-trimethyl-2,5-dihydro-1H-[1]benzopyrano[3,4-f]quinoline [Example 291] | 8.1 nM | 592 nM |  |
| 31 nM | ≥ 10000 nM | COc1cccc2c1-c1ccc3c(c1C(c1cccc(-c4ccco4)c1)O2)C(C)=CC(C)(C)N3 (centres unmarked) [Example 112, 5-[3-(2-Furanyl)phenyl]-2,5-dihydro-10-methoxy-2,2,4-trimethyl-1H-[1]benzopyrano[3,4-f]quinoline] |  |  |  |
| 6.25 nM | 1590 nM | COc1cccc2c1-c1ccc3c(c1C(CC=C(C)C)O2)C(C)=CC(C)(C)N3 (centres unmarked) [Example 190, 2,5-Dihydro-10-methoxy-5-(3-methyl-2-butenyl)-2,2,4-trimethyl-1H-[1]benzopyrano[3,4f-]quinoline] |  |  |  |
| 9.5 nM | 16600 nM | COc1cccc2c1-c1ccc3c(c1C(CC(C)C)O2)C(C)=CC(C)(C)N3 (centres unmarked) [Example 59, 2,5-Dihydro-10-methoxy-2,2,4-trimethyl-5-(2-methlpropyl)-1H-[1]benzopyrano[3,4-f]quinoline] |  |  |  |
| 0.65 nM | 2130 nM | C/C=C/CC1Oc2cccc(OC)c2-c2ccc3c(c21)C(C)=CC(C)(C)N3 (centres unmarked) [Example 198, (E) 2,5-Dihydro-10-methoxy-5-(2-butenyl)-2,2,4-trimethyl-1H-[1]benzopyrano[3,4-f]quinoline] |  |  |  |
| 2.1 nM | 13400 nM | COc1cccc2c1-c1ccc3c(c1C(c1ccccc1)O2)C(C)=CC(C)(C)N3 (single isomer, unassigned) [Example 26, (±)-2,5-Dihydro-10-methoxy-2,2,4-trimethyl-5-phenyl-1H-[1]benzopyrano[3,4-f]quinoline] |  |  |  |
| 12.2 nM | ≥ 10000 nM | COc1cccc2c1-c1ccc3c(c1C(c1cc(C(F)(F)F)cc(C(F)(F)F)c1)O2)C(C)=CC(C)(C)N3 (centres unmarked) [Example 31, 5-[3,5-bis(Trifluoromethyl)phenyl]-2,5-dihydro-10-methoxy-2,2,4-trimethyl-1H-[1]benzopyrano[3,4-f]quinoline] |  |  |  |
| 1.1 nM | 440 nM | C=CCC1Oc2ccc(OC(=O)CCC(=O)N(CC)CC)c(OC)c2-c2ccc3c(c21)C(C)=CC(C)(C)N3 (centres unmarked) [Example 378, 2,5-Dihydro-9-(4-N,N-diethylamino-4-oxo-butanoyloxy)-10-methoxy-2,2,4-trimethyl-5-(2-propenyl)-1H-[1]benzopyrano[3,4-f]quinoline] |  |  |  |
| 8.2 nM | 6150 nM | COc1cccc2c1-c1ccc3c(c1C(c1cccc(Cl)c1)O2)C(C)=CC(C)(C)N3 (centres unmarked) [Example 23, 5-(3-Chlorophenyl)-2,5-dihydro-10-methoxy-2,2,4-trimethyl-1H-[1]benzopyrano[3,4-f]quinoline] |  |  |  |
| 0.42 nM | 328 nM | COc1c(OC(=O)CCC(=O)N(C)C)ccc2c1-c1ccc3c(c1[C@H]([C@@H]1C=CCC1)O2)C(C)=CC(C)(C)N3 [Example 441, (−)2,5-Dihydro-9-(4-N,N-dimethylamino-4-oxo-butanoyloxy)-10-methoxy-2,2,4-trimethyl-5(S)-(3(S)-1-cyclopenten-3-yl)-1H-[1]benzopyrano[3,4-f]quinoline] |  |  |  |

| Molecule | Ki [1, 3] | Ki [2, 4] | Ki ([1]; read-out: Ki (nM) GR) | Ki [2] | Ki ([1]; Ki (nM) GR) |
| --- | --- | --- | --- | --- | --- |
| COc1cccc2c1-c1ccc3c(c1C(C1=CCCCC1)O2)C(C)=CC(C)(C)N3 (stereo not drawn) [Example 325, trans 2,5-Dihydro-10-methoxy-5-(1-cyclohexenyl)-2,2,4-trimethyl-1H-[1]benzopyrano[3,4-f]quinoline] |  | ≥ 10000 nM |  |  | 24 nM |

From patent US6506766B1 (Abbott Laboratories, priority 1998, dated 2003)
